{"source": "patent US8772499B2", "about": "“TRPV3 modulators” (AbbVie Inc., priority 2011, dated 2014)", "key": {"human TRPV3": {"target": "T1, human TRPV3 (Homo sapiens, UniProt Q8NET8)", "T1 construct": "expressed in transfected cells", "T1 sequence (Q8NET8 1-790)": "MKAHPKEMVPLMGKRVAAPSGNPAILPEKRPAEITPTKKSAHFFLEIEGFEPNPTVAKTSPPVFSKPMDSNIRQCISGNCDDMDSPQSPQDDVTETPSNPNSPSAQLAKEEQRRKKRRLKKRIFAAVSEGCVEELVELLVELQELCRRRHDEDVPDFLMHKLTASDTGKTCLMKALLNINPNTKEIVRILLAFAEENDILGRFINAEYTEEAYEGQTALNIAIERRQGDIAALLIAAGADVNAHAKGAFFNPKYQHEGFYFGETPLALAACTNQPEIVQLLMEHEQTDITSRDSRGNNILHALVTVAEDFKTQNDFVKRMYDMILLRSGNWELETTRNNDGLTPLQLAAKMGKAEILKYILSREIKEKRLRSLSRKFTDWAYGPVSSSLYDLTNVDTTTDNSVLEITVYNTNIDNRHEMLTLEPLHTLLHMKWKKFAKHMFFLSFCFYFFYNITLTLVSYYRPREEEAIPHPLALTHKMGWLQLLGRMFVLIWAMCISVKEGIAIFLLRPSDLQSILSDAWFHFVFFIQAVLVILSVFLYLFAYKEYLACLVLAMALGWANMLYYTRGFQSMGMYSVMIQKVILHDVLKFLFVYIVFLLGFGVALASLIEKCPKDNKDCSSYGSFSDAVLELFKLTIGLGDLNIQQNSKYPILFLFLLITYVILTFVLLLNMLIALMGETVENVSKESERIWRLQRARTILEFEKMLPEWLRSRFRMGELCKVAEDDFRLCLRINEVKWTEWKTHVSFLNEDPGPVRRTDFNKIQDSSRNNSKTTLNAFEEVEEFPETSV", "experiment": "In vitro antagonism of recombinant human TRPV3 activation (FLIPR Tetra calcium assay)", "format": "cell-based", "conditions": "HEK293 cells stably expressing human TRPV3, agonist 2-APB at 80 μM", "summary_of_the_method": "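Calcium flux read over a 10 min run: compound added at 10 s to Calcium-4-loaded human TRPV3-HEK293 cells, agonist 2-APB (80 μM, its EC80) after 3 min. IC50 derived from peak-minus-baseline signal as percentage of uninhibited 2-APB response, typically averaged over at least two runs.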"}, "[1]": {"experiment": "In vitro rat microsomal stability assay", "format": "in vitro ADME, rat (Sprague-Dawley)", "conditions": "Sprague-Dawley, rat, microsomes, 0.5 h, 0.5 μM, pH 7.4", "summary_of_the_method": "(§1)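 Incubations ran at 37° C. in microsomal preparations of rat (Sprague-Dawley) or human liver, with NADPH present, including at time zero.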"}, "[2]": {"experiment": "In vitro human microsomal stability assay", "format": "in vitro ADME", "conditions": "human, microsomes, 0.5 h, 0.5 μM, pH 7.4", "summary_of_the_method": "as §1"}, "[3]": {"conditions": "actual measured value shown parenthetically, in most cases average of at least two runs, read-out: IC50"}}, "note": "pIC50: −log10 of the molar value. Where two headings read alike, the source gives them in different places."}
{"molecule": "O[C@H](c1ncccn1)C1(c2ccc(C(F)(F)F)cc2)CCC1", "note": "[Example 41, (S)-pyrimidin-2-yl{1-[4-(trifluoromethyl)phenyl]cyclobutyl}methanol]", "values": [{"measurement": "pIC50", "setting": "human TRPV3; [3]", "result": "< 5.00"}, {"measurement": "RAT MICROSOMAL STABILITY (% REMAINING AFTER 30 MINUTES)", "setting": "[1]", "result": 21, "unit": "%"}, {"measurement": "HUMAN MICROSOMAL STABILITY (% REMAINING AFTER 30 MINUTES)", "setting": "[2]", "result": 54, "unit": "%"}]}
{"molecule": "O[C@@H](c1ncccn1)C1(c2ccc(C(F)(F)F)cc2)CCC1", "note": "[Example 42, (R)-pyrimidin-2-yl{1-[4-(trifluoromethyl)phenyl]cyclobutyl}methanol]", "values": [{"measurement": "pIC50", "setting": "human TRPV3; [3]", "result": "< 5.00"}, {"measurement": "RAT MICROSOMAL STABILITY (% REMAINING AFTER 30 MINUTES)", "setting": "[1]", "result": 40, "unit": "%"}, {"measurement": "HUMAN MICROSOMAL STABILITY (% REMAINING AFTER 30 MINUTES)", "setting": "[2]", "result": 50, "unit": "%"}]}
{"molecule": "OC(c1ccccn1)C1(c2ccc(Cl)c(Cl)c2)CCCCC1", "note": "(stereo not shown) [Example 43, [1-(3,4-dichlorophenyl)cyclohexyl](pyridin-2-yl)methanol]", "values": [{"measurement": "pIC50", "setting": "human TRPV3; [3]", "result": 6.18}, {"measurement": "pIC50", "setting": "human TRPV3; reported range, read-out: IC50 (range class)", "result": "6.30 to 7.30"}, {"measurement": "RAT MICROSOMAL STABILITY (% REMAINING AFTER 30 MINUTES)", "setting": "[1]", "result": 0.31, "unit": "%"}, {"measurement": "HUMAN MICROSOMAL STABILITY (% REMAINING AFTER 30 MINUTES)", "setting": "[2]", "result": 1.8, "unit": "%"}]}
{"molecule": "Cc1ccccc1C(C)C1(C(O)c2ccccn2)CCC1", "note": "(stereo not shown) [Example 45, {1-[1-(2-methylphenyl)ethyl]cyclobutyl}(pyridin-2-yl)methanol]", "values": [{"measurement": "pIC50", "setting": "human TRPV3; [3]", "result": 5.65}, {"measurement": "RAT MICROSOMAL STABILITY (% REMAINING AFTER 30 MINUTES)", "setting": "[1]", "result": 0.02, "unit": "%"}, {"measurement": "HUMAN MICROSOMAL STABILITY (% REMAINING AFTER 30 MINUTES)", "setting": "[2]", "result": 0.03, "unit": "%"}]}
{"molecule": "CC(c1ccc(F)cc1)C1(C(O)c2ccccn2)CCC1", "note": "(stereo not shown) [Example 46, {1-[1-(4-fluorophenyl)ethyl]cyclobutyl}(pyridin-2-yl)methanol]", "values": [{"measurement": "pIC50", "setting": "human TRPV3; [3]", "result": 4.86}, {"measurement": "RAT MICROSOMAL STABILITY (% REMAINING AFTER 30 MINUTES)", "setting": "[1]", "result": 0.23, "unit": "%"}, {"measurement": "HUMAN MICROSOMAL STABILITY (% REMAINING AFTER 30 MINUTES)", "setting": "[2]", "result": 11, "unit": "%"}]}
{"molecule": "CC(c1ccc(Cl)cc1)C1(C(O)c2ccccn2)CCC1", "note": "(stereo not shown) [Example 49, {1-[1-(4-chlorophenyl)ethyl]cyclobutyl}(pyridin-2-yl)methanol]", "values": [{"measurement": "pIC50", "setting": "human TRPV3; [3]", "result": 5.49}, {"measurement": "RAT MICROSOMAL STABILITY (% REMAINING AFTER 30 MINUTES)", "setting": "[1]", "result": 0.13, "unit": "%"}, {"measurement": "HUMAN MICROSOMAL STABILITY (% REMAINING AFTER 30 MINUTES)", "setting": "[2]", "result": 15, "unit": "%"}]}
{"molecule": "CC(c1ccccc1Cl)C1(C(O)c2ccccn2)CCC1", "note": "(stereo not shown) [Example 50, {1-[1-(2-chlorophenyl)ethyl]cyclobutyl}(pyridin-2-yl)methanol]", "values": [{"measurement": "pIC50", "setting": "human TRPV3; [3]", "result": 5.62}, {"measurement": "RAT MICROSOMAL STABILITY (% REMAINING AFTER 30 MINUTES)", "setting": "[1]", "result": 0.18, "unit": "%"}, {"measurement": "HUMAN MICROSOMAL STABILITY (% REMAINING AFTER 30 MINUTES)", "setting": "[2]", "result": 0.08, "unit": "%"}]}
{"molecule": "Cc1ccc(CC2(C(O)c3ccccn3)CCC2)cc1", "note": "(stereo not shown) [Example 52, [1-(4-methylbenzyl)cyclobutyl](pyridin-2-yl)methanol]", "values": [{"measurement": "pIC50", "setting": "human TRPV3; [3]", "result": 5.30}, {"measurement": "RAT MICROSOMAL STABILITY (% REMAINING AFTER 30 MINUTES)", "setting": "[1]", "result": 0.05, "unit": "%"}, {"measurement": "HUMAN MICROSOMAL STABILITY (% REMAINING AFTER 30 MINUTES)", "setting": "[2]", "result": 1.7, "unit": "%"}]}
{"molecule": "OC(c1ccccn1)C1(C2CCc3ccccc32)CCC1", "note": "(stereo not shown) [Example 55, [1-(2,3-dihydro-1H-inden-1-yl)cyclobutyl](pyridin-2-yl)methanol]", "values": [{"measurement": "pIC50", "setting": "human TRPV3; [3]", "result": 5.15}, {"measurement": "RAT MICROSOMAL STABILITY (% REMAINING AFTER 30 MINUTES)", "setting": "[1]", "result": 0.29, "unit": "%"}, {"measurement": "HUMAN MICROSOMAL STABILITY (% REMAINING AFTER 30 MINUTES)", "setting": "[2]", "result": 1.6, "unit": "%"}]}
{"molecule": "OC(c1ccccn1)C1(C2CCCc3ccccc32)CCC1", "note": "(stereo not shown) [Example 56, pyridin-2-yl[1-(1,2,3,4-tetrahydronaphthalen-1-yl)cyclobutyl]methanol]", "values": [{"measurement": "pIC50", "setting": "human TRPV3; [3]", "result": 5.97}, {"measurement": "RAT MICROSOMAL STABILITY (% REMAINING AFTER 30 MINUTES)", "setting": "[1]", "result": 1.1, "unit": "%"}, {"measurement": "HUMAN MICROSOMAL STABILITY (% REMAINING AFTER 30 MINUTES)", "setting": "[2]", "result": 0.42, "unit": "%"}]}
{"molecule": "OC(c1ccccn1)C1(C2CCOc3ccccc32)CCC1", "note": "(stereo not shown) [Example 57, [1-(3,4-dihydro-2H-chromen-4-yl)cyclobutyl](pyridin-2-yl)methanol]", "values": [{"measurement": "pIC50", "setting": "human TRPV3; [3]", "result": 5.03}, {"measurement": "RAT MICROSOMAL STABILITY (% REMAINING AFTER 30 MINUTES)", "setting": "[1]", "result": 10, "unit": "%"}, {"measurement": "HUMAN MICROSOMAL STABILITY (% REMAINING AFTER 30 MINUTES)", "setting": "[2]", "result": 16, "unit": "%"}]}
{"molecule": "OC(c1ccccn1)C1(C(c2ccccc2)C(F)(F)F)CCC1", "note": "(stereo not shown) [Example 58, pyridin-2-yl[1-(2,2,2-trifluoro-1-phenylethyl)cyclobutyl]methanol]", "values": [{"measurement": "pIC50", "setting": "human TRPV3; [3]", "result": 5.44}, {"measurement": "RAT MICROSOMAL STABILITY (% REMAINING AFTER 30 MINUTES)", "setting": "[1]", "result": 33, "unit": "%"}, {"measurement": "HUMAN MICROSOMAL STABILITY (% REMAINING AFTER 30 MINUTES)", "setting": "[2]", "result": 36, "unit": "%"}]}
{"molecule": "OC(c1ccccn1)C1(c2ccc(Cl)c(Cl)c2)CCOCC1", "note": "(stereo not shown) [Example 59, [4-(3,4-dichlorophenyl)tetrahydro-2H-pyran-4-yl](pyridin-2-yl)methanol]", "values": [{"measurement": "pIC50", "setting": "human TRPV3; [3]", "result": 5.75}, {"measurement": "RAT MICROSOMAL STABILITY (% REMAINING AFTER 30 MINUTES)", "setting": "[1]", "result": 12, "unit": "%"}, {"measurement": "HUMAN MICROSOMAL STABILITY (% REMAINING AFTER 30 MINUTES)", "setting": "[2]", "result": 45, "unit": "%"}]}
